Reference: publication PMC4747398, “Isothiocyanatostilbenes as novel c-Met inhibitors” (Oncotarget, 2015)
Where two headings read alike, the source gives them in different places.

Tests used:
[1] = target: c-Met M1250T (M1268T) (Homo sapiens, UniProt P08581, M1250T); assay: Z'-LYTE kinase phosphorylation inhibition assay, mutant c-Met; type: biochemical; settings: 200 μM ATP, cell-free
Procedure: (§1) Z'-LYTE™ Kinase Assay-Tyr6 Peptide kit (Invitrogen) was used to assess the ability of tested compounds to inhibit c-Met phosphorylation. Briefly, 20 μl/well reactions were set up in 96-well plates containing kinase buffer, 200 μM ATP, 4 μM Z-LYTE™ Tyr6 Peptide substrate, 2500 ng/ml c-Met kinase and DIDS or H2DIDS at various concentrations. After 1 hour incubation at room temperature, 10 μl development solution containing site-specific protease was added to each well. Incubation was continued for 1 hour. The reaction was then stopped, and the fluorescent signal ratio of 445 nm (coumarin)/520 nm (fluorescein) was determined on a plate reader (BioTek FLx800™), which reflects the peptide substrate cleavage status and/or the kinase inhibitory activity in the reaction. […] The IC50 value for each compound was calculated by nonlinear regression of log concentration versus % c-Met phosphorylation ± S.E.M., implemented in GraphPad Prism version 5.0 (GraphPad Software, CA, USA).

[2] = target: T1, EGFR (Homo sapiens, UniProt P00533); assay: EGF-induced EGFR activation, western blot, DU145; type: cell-based; settings: DU145, 100 ng/ml EGF 20 minutes, 4 μM DIDS or 25 μM H2DIDS
T1 construct: 100 ng/ml EGF b; endogenous in cells; host or cells: DU145
Procedure: (§2) Cells were grown to ~70% confluency prior to treatment. Cells were serum-starved in serum-free media for 30 minutes prior to treatment in complete media or serum-free media for the indicated times. Cell lysates were collected in Laemmli (125 mM Tris, 4% SDS, 0.01% bromophenol blue, 30% sucrose) containing 0.5% β-mercaptoethanol and boiled ~8 minutes. Primary antibodies include: phospho-c-Met (Y1234/1235), phospho-Akt (S473), pEGFR (S845), pIGF-IRβ (Y1135/1136) (Cell Signaling Technology; Beverly, MA); α-actin (Sigma-Aldrich), c-Met (C-28) (Life Technologies). Secondary antibodies include: horseradish peroxidase-conjugated anti-rabbit and anti-mouse (GE Healthcare; Pittsburgh, PA). ECL 2 was used for chemiluminescent detection (Thermo Scientific; Rockford, IL). Densitometry was calculated using ImageJ (NIH).

[3] = tested on: matrix metalloproteinase release; set-up: method as in PMID 22937143; settings: cited from earlier work
[4] = tested on: DU145 cells; assay: EGF-induced wound healing; type: cell-based; settings: DU145, 100 ng/ml EGF, 4 μM DIDS or 25 μM H2DIDS
Procedure: (§3) DU145 cells were grown to ~100% confluency prior to wounding with the IncuCyte™ WoundMaker™ (Essen Bioscience; Ann Arbor, MI) and washed once with complete media. For invasion, cells were covered with Matrigel diluted 1:5 in serum-free RPMI following wounding. Cells were treated with 4 μM DIDS or 25 μM H2DIDS with or without 33 ng/ml HGF or 100 ng/ml EGF for up to 4 days. Images were taken every 4 hours with the IncuCyte™ ZOOM imaging system (Essen Bioscience). Quadruplicate replicates were used in each experiment. Data are presented as percent wound density ± standard error of the mean (S.E.M.).

[5] = tested on: DU145 cells; assay: HGF-induced invasion through Matrigel; type: cell-based; settings: DU145, 33 ng/ml HGF, Matrigel diluted 1:5
Procedure: as §3

[6] = tested on: DU145 cells; assay: HGF-induced wound healing; type: cell-based; settings: DU145, 33 ng/ml HGF, 4 μM DIDS or 25 μM H2DIDS
Procedure: as §3

[7] = tested on: Akt; assay: Downstream Akt phosphorylation, western blot, DU145; type: cell-based; settings: DU145, serum-free, HGF, ~8 μM compound
Procedure: as §2

[8] = tested on: MDA-MB-231/GFP human breast cancer cells; assay: Orthotopic breast tumor xenograft; type: in vivo; settings: mice, 5 mg/kg then 10 mg/kg i.p.
Procedure: (§4) All animal experiments were approved by the Institutional Animal Care and Use Committee, University of Louisiana at Monroe, and were handled in strict accordance with good animal practice as defined by the NIH guidelines. Athymic nude mice (Foxn1^nu/Foxn1^+, 4–5 weeks, female) were purchased from Harlan (Indianapolis, IN). The mice had free access to standard pellet food and water. The animals were acclimated to animal house facility conditions at a temperature of 18–25°C, with a relative humidity of 55 to 65% and a 12 h light/dark cycle, for one week prior to the experiments. MDA-MB-231/GFP human breast cancer cells were cultured and resuspended in serum-free DMEM medium (20 μl). After anesthesia, cell suspensions (1 × 10^6 cells/20 μl) were inoculated subcutaneously into the second mammary gland fat pad just beneath the nipple of each animal to generate orthotopic breast tumors. […] The mice were monitored by measuring tumor volume, body weight, and clinical observation. Tumor volume (V) was calculated by V = L/2 × W^2, where L was the length and W was the width of tumors. The results are presented as average ± S.E.M. Differences among various treatment groups were determined by the analysis of variance (ANOVA) followed by Dunnett's test using PASW statistics version 18. […]

[9] = target: T2, IGFR (Homo sapiens, UniProt P08069); assay: IGF-induced IGFR activation, western blot, DU145; type: cell-based; settings: DU145, 100 ng/ml IGF 20 minutes, 4 μM DIDS or 25 μM H2DIDS
T2 construct: endogenous in cells; host or cells: DU145
Procedure: as §2

[10] = tested on: DU145 cells; assay: HGF-induced cell scattering assay; type: cell-based; settings: DU145, 33 ng/ml HGF overnight, 4 μM DIDS or 25 μM H2DIDS
Procedure: DU145 cells were grown to ~50% confluency. Cells were treated overnight with 4 μM DIDS or 25 μM H2DIDS in the presence or absence of 33 ng/ml HGF or 100 ng/ml EGF. Cells were fixed with 4% paraformaldehyde and stained with Oregon Green 488 phalloidin (Invitrogen; Carlsbad, CA). Images were acquired on an Eclipse TE300 inverted microscope (Nikon; Tokyo, Japan) with NIS Elements version 4.13.04 software. Presented images were taken using a 10X objective.

[11] = target: T3, c-Met (Homo sapiens, UniProt P08581); assay: HGF-induced c-Met phosphorylation, western blot, DU145; type: cell-based; set-up: endogenous in cells; host or cells: DU145; settings: for effective concentration for c-Met inhibition in 10% FBS versus serum-free: DU145, 33 ng/ml HGF 20 minutes, 10% FBS RPMI; for reduction of c-Met activation: 8 μM compound, western blot densitometry
Procedure: as §2

[12] = Tolerability in xenograft mice; type: in vivo
Procedure: as §4

[13] = target: T3, c-Met; assay: Constitutive pMet in c-Met amplified H1993 cells, western blot; type: cell-based; set-up: endogenous in cells; settings: 5 μM compound, no HGF
Procedure: as §2

[14] = tested on: protein translocation across the ER membrane; set-up: method as in PMID 8396042; settings: cited from earlier work
[15] = target: T3, c-Met; assay: Washout and reversal of c-Met phosphorylation in DU145, western blot; type: cell-based; set-up: endogenous in cells; host or cells: DU145; settings: wash
Procedure: as §2

[16] = 2D proliferation (Cell Titer Blue); type: cell-based; settings: up to 72 hours; for effect on serum-free proliferation (2D): serum-free RPMI
Procedure: Cells were seeded to ~30% confluency prior to treatment with DIDS or H2DIDS at 0.5 μM, 2 μM, 8 μM, 32 μM, or 64 μM for 24 hours, 48 hours, or 72 hours in complete or serum-free RPMI. A T0 timepoint was also measured. For each timepoint, cells were exposed to Cell Titer Blue reagent (Promega) for 1 hour at 37°C 5% CO2. Experiments were performed with quadruplicate replicates. Fluorescence was measured using a BioTek Synergy 4 plate reader with Gen5 software.

[17] = target: wild-type c-Met (Homo sapiens, UniProt P08581); assay: Z'-LYTE kinase phosphorylation inhibition assay, wild-type c-Met; type: biochemical
Procedure: as §1

[18] = tested on: DU145 spheroids; assay: 3D spheroid proliferation in Matrigel; type: cell-based; settings: 5 μM compound, 33 ng/ml HGF, 72 hours
Procedure: Prior to seeding, cells were incubated with 2.5 ng/μl CellTracker Red (Life Technologies) in complete DMEM lacking Phenol Red for 5 minutes at room temperature then centrifuged at 1000 RPM for 5 minutes. Dyed cells were resuspended in complete DMEM lacking Phenol Red and containing 5% Matrigel before adding 5 μM, 10 μM, 20 μM, or 40 μM DIDS or H2DIDS +/− HGF. The mixture of cells, treatments, and Matrigel in complete media was seeded at 2000 cells/well in a 96 well plate. The plate was centrifuged at 1000 RPM for 3 minutes to collect the cells into the bottom of the plate. Spheroid growth was imaged for up to 80 hours and analyzed for average red object area using the IncuCyte™ ZOOM software. […] Images were captured by the IncuCyte™ ZOOM imaging system and representative 10X images are shown.

[19] = DU145, serum-free, 33 ng/ml HGF 20 minutes

Sequence of wild-type c-Met (P08581 25-1390): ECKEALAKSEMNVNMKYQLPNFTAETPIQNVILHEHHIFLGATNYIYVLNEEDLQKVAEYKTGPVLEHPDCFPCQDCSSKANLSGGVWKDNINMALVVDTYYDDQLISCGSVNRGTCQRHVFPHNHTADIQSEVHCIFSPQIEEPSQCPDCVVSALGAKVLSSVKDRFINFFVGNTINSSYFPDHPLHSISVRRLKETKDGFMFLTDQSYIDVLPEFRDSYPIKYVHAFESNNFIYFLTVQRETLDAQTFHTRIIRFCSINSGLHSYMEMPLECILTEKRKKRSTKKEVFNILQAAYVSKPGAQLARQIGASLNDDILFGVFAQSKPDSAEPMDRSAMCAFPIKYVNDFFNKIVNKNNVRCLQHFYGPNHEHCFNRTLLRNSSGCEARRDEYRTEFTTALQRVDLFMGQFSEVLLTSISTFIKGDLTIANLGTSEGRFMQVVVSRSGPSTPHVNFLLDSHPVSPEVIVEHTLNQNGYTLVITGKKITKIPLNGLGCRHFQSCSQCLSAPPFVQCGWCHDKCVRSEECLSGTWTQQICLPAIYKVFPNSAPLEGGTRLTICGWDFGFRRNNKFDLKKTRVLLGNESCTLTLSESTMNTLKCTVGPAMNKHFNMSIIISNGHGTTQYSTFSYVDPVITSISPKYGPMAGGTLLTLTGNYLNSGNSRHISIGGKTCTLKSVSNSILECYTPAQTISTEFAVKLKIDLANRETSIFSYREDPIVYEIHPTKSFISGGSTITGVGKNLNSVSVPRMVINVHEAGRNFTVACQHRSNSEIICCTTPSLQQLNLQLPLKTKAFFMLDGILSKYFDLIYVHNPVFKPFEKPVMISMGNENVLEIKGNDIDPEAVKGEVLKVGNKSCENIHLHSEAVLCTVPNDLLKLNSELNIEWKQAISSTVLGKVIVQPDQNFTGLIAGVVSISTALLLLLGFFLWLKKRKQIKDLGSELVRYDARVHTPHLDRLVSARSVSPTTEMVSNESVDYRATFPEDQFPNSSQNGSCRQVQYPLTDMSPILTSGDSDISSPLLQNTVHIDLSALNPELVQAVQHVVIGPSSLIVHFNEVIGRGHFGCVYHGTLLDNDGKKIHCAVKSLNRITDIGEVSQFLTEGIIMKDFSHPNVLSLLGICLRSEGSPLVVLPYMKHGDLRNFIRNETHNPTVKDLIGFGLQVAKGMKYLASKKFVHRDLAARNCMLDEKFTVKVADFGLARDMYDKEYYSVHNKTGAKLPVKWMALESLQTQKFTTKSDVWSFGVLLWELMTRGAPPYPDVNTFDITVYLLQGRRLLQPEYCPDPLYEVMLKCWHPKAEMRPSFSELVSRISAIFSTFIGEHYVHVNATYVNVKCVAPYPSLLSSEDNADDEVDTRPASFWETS
T3 sequence (P08581 25-1390): as above
T2 sequence (P08069 31-1367): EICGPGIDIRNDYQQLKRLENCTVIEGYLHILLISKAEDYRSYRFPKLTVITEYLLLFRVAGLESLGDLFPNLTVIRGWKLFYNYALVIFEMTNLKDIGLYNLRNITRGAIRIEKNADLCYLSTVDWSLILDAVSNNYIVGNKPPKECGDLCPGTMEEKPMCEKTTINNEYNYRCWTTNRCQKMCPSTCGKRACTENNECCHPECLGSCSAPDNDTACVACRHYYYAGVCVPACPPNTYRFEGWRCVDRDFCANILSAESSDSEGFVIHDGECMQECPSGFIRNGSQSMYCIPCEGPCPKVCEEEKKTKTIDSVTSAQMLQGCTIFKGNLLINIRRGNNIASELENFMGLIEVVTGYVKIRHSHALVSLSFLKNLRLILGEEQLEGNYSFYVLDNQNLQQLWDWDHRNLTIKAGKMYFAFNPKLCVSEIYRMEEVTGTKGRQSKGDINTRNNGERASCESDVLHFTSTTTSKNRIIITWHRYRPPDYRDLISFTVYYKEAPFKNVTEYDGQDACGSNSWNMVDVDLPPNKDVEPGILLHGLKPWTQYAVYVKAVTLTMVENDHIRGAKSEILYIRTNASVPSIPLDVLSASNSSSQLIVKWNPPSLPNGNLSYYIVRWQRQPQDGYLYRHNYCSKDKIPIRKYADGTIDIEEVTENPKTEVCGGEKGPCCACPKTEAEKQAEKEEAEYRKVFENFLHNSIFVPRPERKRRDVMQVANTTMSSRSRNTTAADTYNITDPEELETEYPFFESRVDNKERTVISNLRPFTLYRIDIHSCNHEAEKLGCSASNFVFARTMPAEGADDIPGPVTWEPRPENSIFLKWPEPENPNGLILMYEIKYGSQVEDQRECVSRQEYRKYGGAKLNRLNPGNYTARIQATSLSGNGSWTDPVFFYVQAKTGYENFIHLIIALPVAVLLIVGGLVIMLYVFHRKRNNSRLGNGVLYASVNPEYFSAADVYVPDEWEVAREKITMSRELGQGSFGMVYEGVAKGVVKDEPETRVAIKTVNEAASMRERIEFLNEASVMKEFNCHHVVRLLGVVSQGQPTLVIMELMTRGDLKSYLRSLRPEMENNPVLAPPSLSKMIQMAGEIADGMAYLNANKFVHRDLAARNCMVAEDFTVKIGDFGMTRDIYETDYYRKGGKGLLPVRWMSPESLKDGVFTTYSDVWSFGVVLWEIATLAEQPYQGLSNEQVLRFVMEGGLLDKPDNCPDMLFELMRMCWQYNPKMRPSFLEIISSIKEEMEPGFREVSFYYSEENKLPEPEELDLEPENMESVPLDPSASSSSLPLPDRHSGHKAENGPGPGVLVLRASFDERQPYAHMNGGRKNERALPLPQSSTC
Sequence of c-Met M1250T (M1268T) (P08581 956-1390 M1250T limits assumed): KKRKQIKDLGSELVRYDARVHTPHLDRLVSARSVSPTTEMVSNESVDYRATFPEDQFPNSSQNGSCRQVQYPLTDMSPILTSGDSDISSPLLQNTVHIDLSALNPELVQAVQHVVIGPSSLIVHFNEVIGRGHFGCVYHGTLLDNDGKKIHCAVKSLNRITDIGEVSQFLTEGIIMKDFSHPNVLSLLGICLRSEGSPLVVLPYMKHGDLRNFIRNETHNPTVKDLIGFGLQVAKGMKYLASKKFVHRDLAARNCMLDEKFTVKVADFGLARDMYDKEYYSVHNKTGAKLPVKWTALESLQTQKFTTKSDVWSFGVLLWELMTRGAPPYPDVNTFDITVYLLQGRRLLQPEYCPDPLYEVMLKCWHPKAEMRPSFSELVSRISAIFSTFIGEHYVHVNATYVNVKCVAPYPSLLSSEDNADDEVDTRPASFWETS

SMILES | effect on EGFR activation [2] | effect on EGF-mediated wound healing [4] | effect on HGF-induced invasion [5] | effect on HGF-induced wound healing [6] | effect on IGFR activation [9] | effect on HGF-induced cell scattering [10] | effective concentration for c-Met inhibition in 10% FBS versus serum-free [11] | reduction of c-Met activation [11, 19] | effect on pMet levels in H1993 cells [13] | effect on proliferation in complete media (2D) [16] | effect on serum-free proliferation (2D) [16] | decrease of HGF-induced DU145 spheroid growth [18] | other results
O=S(=O)(O)c1cc(N=C=S)ccc1C=Cc1ccc(N=C=S)cc1S(=O)(=O)O [DIDS, 4,4′-Diisothiocyanatostilbene-2,2′-disulfonic acid] | do not significantly reduce | minimal effects | reduce HGF-induced wound healing and invasion in a dose-dependent manner | significantly reduced | do not significantly reduce | able to reduce HGF-induced | slightly higher effective concentrations | ~ 90% | much less significant effects | minimal effects | minimal effects | ~ 60% | IC50 [1]: 370 nM; concentration inhibiting matrix metalloproteinase release [3]: ≥ 400 µM; reduction of downstream Akt [7]: ~ 90%; tumor size (caliper) ([8]; 3X/week): began to reduce tumor size towards the end of the experiment; tumor weight at necropsy ([8]; versus DMSO control): Differences in overall tumor weight were evident; signs of toxicity ([12]; 5 mg/kg intraperitoneally, ~2 weeks): No obvious signs of toxicity; body weight versus DMSO control ([12]; 5 mg/kg then 10 mg/kg i.p., 3X/week): no change in body weight; concentration inhibiting protein translocation across the ER membrane [14]: ≥ 400 µM; effect on pMet when given post HGF treatment ([15]; DU145, 33 ng/ml HGF 20 minutes, 4 μM for 20 or 60 minutes): reduced pMet levels; reversibility of c-Met inhibition after washout ([15]; DU145, 4 μM 20 minutes, then 33 ng/ml HGF 20 minutes): does not irreversibly bind c-Met; IC50 ([17]; 200 μM ATP, cell-free, read-out: IC50, wild-type c-Met): 300 nM
O=[N+]([O-])c1ccc(C=Cc2ccc([N+](=O)[O-])cc2S(=O)(=O)O)c(S(=O)(=O)O)c1 [DNDS, 4,4′-dinitrostilbene-2,2′-disulfonic acid] |  |  |  |  |  |  |  |  |  |  |  |  | inhibition at 2000 µM ([11]; DU-145, read-out: inhibition of c-Met): ~90%
O=S(=O)(O)c1cc(N=C=S)ccc1CCc1ccc(N=C=S)cc1S(=O)(=O)O [H2DIDS, 4,4′-Diisothiocyanatodihydrostilbene-2,2′-disulfonic acid] | do not significantly reduce | minimal effects | reduce HGF-induced wound healing and invasion in a dose-dependent manner | significantly reduced | do not significantly reduce | able to reduce HGF-induced | slightly higher effective concentrations | ~ 90% | much less significant effects | minimal effects | minimal effects | ~ 60% | IC50 [17]: 3600 nM
CC(=O)Nc1ccc(C=Cc2ccc(N=C=S)cc2S(=O)(=O)O)c(S(=O)(=O)O)c1 [SITS, 4-acetamido-4′-isothiocyanatostilbene-2,2′-disulfonic acid] |  |  |  |  |  |  |  |  |  |  |  |  | inhibition at 250 µM ([11]; DU-145, DU145, serum-free, 33 ng/ml HGF 20 minutes, 250 μM compound): ~90%
Cc1[nH]c(/C=C2\C(=O)Nc3ccc(S(=O)(=O)N(C)c4cccc(Cl)c4)cc32)c(C)c1C(=O)N1CCN(C)CC1 [SU11274] |  |  |  |  |  |  |  |  | ameliorated pMet levels |  |  |  | reduction of c-Met phosphorylation ([17]; 500 nM compound, cell-free kinase assay): ~ 70%
